# PMC7875911 (Frontiers in Pharmacology, 2021)
# Several values for one entry are separate records, joined by “and”; a condition that tells them apart may be missing. Equal values may be shown once. Entries after “also recorded” stand apart in the source; their conditions may differ. Read-outs that look alike come from different tables or passages of the source.
# Columns and labels:
# [1] = tested on: HVA I Ca in small-diameter IB4 ^− DRG neurons; test: cells
# Protocol: Spinal level L3–L5 DRG were removed and placed in ice-cold HEPES-buffered saline (HBS) composed of (in mM): 154 NaCl, 2.5 KCl, 1.8 CaCl2, 1.5 MgCl2, 10 HEPES, and 10 glucose (pH 7.4, 330 ± 5 mOsm). Iridectomy scissors were utilized to cut up ganglia before incubation at 37°C for 15 min in oxygenated HBS containing 5 mg ml^−1 collagenase type 2 (Worthington Biochemical Corp, Lakewood, NJ, United States) followed by 25 min in oxygenated HBS containing 1 mg ml^−1 papain (Worthington Biochemical Corp). […] After enzyme treatment, ganglia were placed in 3 ml of HBS following two room temperature HBS washes. Ganglia were then triturated through fire-polished Pasteur pipettes with decreasing bores to extract cells. Finally, the cells mixed in HBS were plated onto surface modified culture dishes (Corning Primaria™ easy grip). […] DRG cells were pre-treated with 1 μg ml^−1 Alexa Fluor 488-conjugated Bandeiraea simplicifolia IB4 (Invitrogen) for 5 min at room temperature and washed with HBS for 5 min before fluorescence was examined on the inverted microscope (Olympus, IX50) used for patch clamp recordings.
# Cell size was determined from an eyepiece graticule. Whole-cell electrophysiology was conducted at room temperature (22–24°C) in culture dishes perfused with room temperature HBS. The intracellular pipette solution contained (mM): 120 CsCl, 10 HEPES, 10 EGTA, 2 CaCl2, 5 MgATP, 5 Na2GTP, 5 NaCl; pH 7.3 (CsOH); 285 ± 5 mos mol l^−1.
# An EPC-9 patch-clamp amplifier and corresponding PULSE software from HEKA Electronik (Lambrecht/Pfalz, Germany) were used to make recordings. Currents were sampled at 50 kHz and recorded on a hard disk. Borosilicate glass from AM Systems, Everett, WA, United States were used for patch pipettes. The input resistance of the pipettes ranged from 2 to 4 MΩ. […] A built-in procedure of the HEKA amplifier compensated for the capacitive transient currents. A −P/6 protocol was utilized to subtract leak current online. I Ca was generated with the recording protocol which included a depolarization from a holding potential of −80 mV to 0 mV for 10 ms every 30 s. I Na was generated through a recording protocol which included a step depolarization from a holding potential of −80 mV to 0 mV for 10 ms at a frequency of 0.1 Hz. Cells were perfused with the test compound via a pressure driven perfusion system (AutoMate Scientific, United States).
# All data analysis and graphs were generated in OriginPro (Origin Lab Corporation, United States). […] Activation and SSI curves were fit by the modified Boltzmann equation: I or G=1/(1+exp(Vm−V0.5/ka)) Where I is the current or G is the conductance, Vm is the pre-pulse potential, V 0.5 is the half-maximal activation potential and ka is the slope factor.
# Statistical significance (p < 0.05) was determined using unpaired Student’s t-test or 1-way ANOVA followed by a Tukey multiple comparison. All data is presented as mean ± SEM (n), where n is individual cells.
# mCav1.2 = test: Whole-cell patch clamp, recombinant mCav1.2 in HEK293; type: cell-based, mouse; settings: 10 µM
# Protocol: (§1) Human embryonic kidney (HEK293T) cells containing the SV40 Large T-antigen were cultured at 37°C, 5% CO2 in Dulbecco’s Modified Eagle’s Medium (DMEM, Invitrogen Life Technologies, Australia), supplemented with 10% fetal bovine serum (FBS, Bovigen, Australia), 1% GlutaMAX and penicillin-streptomycin (Invitrogen, Australia). […]
# (§2) Depolarization-activated Ca^2+ currents (ICa) in transfected HEK293 cells were recorded in the whole-cell patch clamp configuration. Data were recorded using a MultiClamp 700B amplifier, digitized with a DigiData1440 and controlled using Clampex10.7 software (Molecular Devices, United States). […]
# (§3) Statistical significance (p < 0.05) was determined using unpaired Student’s t-test or 1-way ANOVA followed by a Tukey multiple comparison. […]
# (§4) Numerous HVA Cav channel isoforms are present in rat DRG neurons. […] We transiently co-transfected the individual Cav channel α-subunits of interest together with β3 and α2δ1 subunits in HEK293 cells and measured whole-cell I Ca currents by patch clamp. […]
# hCav2.1 = test: Whole-cell patch clamp, recombinant hCav2.1 in HEK293; type: cell-based, human; settings: 10 µM
# Protocol: as §1, §2, §3, §4
# [2] = tested on: Cav1.2, Cav1.3, Cav2.1, and Cav2.2
# Protocol: as §1, §2, §3, §4
# hCav2.2 = target: T1, hCav2.2 (Homo sapiens, UniProt Q00975); test: hCav2.2 voltage dependence of activation; type: cell-based
# T1 construct: expressed in transfected cells; host or cells: HEK293 (HEK293T), transient calcium phosphate co-transfection
# T1 sequence (P54289 25-956): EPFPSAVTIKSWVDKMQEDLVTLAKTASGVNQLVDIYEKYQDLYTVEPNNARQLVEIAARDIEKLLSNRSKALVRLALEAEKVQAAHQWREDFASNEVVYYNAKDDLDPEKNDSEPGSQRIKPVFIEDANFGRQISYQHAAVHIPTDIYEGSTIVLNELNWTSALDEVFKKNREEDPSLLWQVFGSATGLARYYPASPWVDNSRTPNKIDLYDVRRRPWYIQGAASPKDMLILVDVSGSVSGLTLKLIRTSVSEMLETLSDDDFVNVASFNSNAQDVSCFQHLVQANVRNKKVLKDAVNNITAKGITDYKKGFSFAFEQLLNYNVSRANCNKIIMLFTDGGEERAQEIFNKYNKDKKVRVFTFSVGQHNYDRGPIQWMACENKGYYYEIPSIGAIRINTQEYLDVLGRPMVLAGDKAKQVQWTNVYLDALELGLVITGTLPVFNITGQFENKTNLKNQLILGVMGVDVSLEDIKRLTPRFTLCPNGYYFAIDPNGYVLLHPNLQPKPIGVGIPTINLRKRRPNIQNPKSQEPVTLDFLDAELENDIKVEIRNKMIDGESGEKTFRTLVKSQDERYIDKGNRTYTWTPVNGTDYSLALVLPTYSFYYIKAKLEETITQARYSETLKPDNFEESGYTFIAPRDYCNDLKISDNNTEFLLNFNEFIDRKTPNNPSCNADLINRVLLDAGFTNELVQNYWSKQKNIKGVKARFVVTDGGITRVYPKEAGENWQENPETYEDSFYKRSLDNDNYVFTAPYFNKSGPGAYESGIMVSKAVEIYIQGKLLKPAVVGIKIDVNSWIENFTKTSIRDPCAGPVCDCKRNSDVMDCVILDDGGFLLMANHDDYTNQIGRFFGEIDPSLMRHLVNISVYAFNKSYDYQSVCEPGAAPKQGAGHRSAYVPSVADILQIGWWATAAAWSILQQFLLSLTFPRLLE
# T1 sequence (P54289 957-1103): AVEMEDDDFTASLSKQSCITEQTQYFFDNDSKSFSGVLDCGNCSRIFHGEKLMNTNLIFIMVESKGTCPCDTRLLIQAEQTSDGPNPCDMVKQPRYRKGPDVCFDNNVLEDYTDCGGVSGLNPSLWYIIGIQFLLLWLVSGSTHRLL
# T1 sequence (Q00975 whole entry): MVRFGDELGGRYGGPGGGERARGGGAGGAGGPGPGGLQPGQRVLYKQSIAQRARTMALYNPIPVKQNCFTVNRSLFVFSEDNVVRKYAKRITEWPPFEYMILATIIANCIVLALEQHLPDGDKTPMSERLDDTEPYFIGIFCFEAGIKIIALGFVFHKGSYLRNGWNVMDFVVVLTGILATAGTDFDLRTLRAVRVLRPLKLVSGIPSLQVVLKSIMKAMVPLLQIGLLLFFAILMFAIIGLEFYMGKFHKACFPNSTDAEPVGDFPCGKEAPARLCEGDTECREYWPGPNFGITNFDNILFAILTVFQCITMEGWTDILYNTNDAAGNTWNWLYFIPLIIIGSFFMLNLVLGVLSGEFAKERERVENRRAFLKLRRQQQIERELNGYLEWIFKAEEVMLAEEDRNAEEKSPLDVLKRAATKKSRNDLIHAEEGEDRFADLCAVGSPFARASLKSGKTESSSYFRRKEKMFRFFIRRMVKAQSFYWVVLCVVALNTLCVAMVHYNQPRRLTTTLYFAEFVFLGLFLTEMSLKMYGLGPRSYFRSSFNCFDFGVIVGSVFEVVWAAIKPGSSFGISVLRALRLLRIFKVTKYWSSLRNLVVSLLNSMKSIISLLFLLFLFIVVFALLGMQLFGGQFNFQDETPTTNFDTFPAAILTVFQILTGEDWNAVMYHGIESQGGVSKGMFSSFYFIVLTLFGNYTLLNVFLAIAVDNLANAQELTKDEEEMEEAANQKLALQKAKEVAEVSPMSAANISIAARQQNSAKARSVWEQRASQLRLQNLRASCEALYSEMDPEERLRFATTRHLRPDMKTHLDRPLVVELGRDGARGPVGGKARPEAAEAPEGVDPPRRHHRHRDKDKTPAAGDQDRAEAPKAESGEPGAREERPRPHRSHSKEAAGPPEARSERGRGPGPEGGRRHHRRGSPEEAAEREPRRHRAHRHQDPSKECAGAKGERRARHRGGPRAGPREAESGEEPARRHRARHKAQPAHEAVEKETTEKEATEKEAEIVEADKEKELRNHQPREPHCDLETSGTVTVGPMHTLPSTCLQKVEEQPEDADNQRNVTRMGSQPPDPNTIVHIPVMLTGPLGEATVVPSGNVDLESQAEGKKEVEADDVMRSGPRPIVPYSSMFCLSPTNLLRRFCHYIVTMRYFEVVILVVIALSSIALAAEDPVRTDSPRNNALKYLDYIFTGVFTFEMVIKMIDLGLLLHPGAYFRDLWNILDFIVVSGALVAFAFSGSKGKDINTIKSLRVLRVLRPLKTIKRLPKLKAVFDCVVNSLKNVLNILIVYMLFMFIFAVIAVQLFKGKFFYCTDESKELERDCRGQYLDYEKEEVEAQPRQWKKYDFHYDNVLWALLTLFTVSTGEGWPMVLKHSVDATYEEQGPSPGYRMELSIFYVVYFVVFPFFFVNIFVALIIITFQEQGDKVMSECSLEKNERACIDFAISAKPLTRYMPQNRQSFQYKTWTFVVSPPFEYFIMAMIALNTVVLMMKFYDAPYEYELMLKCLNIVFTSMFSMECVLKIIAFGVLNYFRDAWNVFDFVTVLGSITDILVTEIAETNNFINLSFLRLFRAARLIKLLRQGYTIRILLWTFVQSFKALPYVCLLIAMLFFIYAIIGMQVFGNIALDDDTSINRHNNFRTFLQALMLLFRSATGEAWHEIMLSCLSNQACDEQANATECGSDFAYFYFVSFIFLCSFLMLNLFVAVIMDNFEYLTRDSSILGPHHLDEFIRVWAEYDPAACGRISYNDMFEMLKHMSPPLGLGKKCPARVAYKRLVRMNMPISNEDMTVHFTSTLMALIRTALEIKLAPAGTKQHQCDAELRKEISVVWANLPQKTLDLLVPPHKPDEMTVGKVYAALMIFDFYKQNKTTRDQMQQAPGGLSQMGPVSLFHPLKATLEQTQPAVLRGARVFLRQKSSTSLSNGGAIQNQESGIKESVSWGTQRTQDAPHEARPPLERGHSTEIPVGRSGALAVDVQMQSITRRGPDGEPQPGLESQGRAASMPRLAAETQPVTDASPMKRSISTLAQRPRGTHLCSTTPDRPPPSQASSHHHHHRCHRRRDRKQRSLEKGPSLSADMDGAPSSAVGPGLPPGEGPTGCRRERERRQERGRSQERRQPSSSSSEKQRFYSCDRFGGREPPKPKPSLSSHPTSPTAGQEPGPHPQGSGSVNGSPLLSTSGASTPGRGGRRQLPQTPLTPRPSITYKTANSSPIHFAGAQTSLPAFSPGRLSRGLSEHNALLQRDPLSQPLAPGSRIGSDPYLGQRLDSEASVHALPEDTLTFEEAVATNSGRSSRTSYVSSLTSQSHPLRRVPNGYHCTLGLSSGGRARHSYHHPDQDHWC
# T1 sequence (P54284 whole entry, further chain): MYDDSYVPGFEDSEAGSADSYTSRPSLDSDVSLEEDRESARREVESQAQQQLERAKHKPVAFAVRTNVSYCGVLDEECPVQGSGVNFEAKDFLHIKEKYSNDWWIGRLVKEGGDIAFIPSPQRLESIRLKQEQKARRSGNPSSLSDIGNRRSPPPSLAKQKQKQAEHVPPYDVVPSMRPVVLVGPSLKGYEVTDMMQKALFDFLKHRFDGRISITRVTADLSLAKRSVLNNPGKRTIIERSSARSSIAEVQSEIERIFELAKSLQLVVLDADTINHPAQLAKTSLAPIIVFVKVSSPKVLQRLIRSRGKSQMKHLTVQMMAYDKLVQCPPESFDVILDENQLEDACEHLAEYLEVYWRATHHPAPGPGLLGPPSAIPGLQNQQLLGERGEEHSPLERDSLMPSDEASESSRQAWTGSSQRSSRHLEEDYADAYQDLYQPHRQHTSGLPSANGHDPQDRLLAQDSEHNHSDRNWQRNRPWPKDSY
# Protocol: Human embryonic kidney (HEK293T) cells containing the SV40 Large T-antigen were cultured at 37°C, 5% CO2 in Dulbecco’s Modified Eagle’s Medium (DMEM, Invitrogen Life Technologies, Australia), supplemented with 10% fetal bovine serum (FBS, Bovigen, Australia), 1% GlutaMAX and penicillin-streptomycin (Invitrogen, Australia). HEK293 cells were then transiently co-transfected with the different voltage-gated calcium channel isoforms and green fluorescent protein (GFP) for visualization, using the calcium phosphate method. cDNAs encoding mCav1.2 (a gift from Dr. D. Lipscombe; Addgene plasmid #26572) ([Helton et al., 2005]), rCav1.3 (a gift from Dr. D. Lipscombe; Addgene plasmid # 49,333) ([Xu and Lipscombe, 2001]), hCav2.1 (a gift from Dr. J. Striessnig), rCav2.2 (a gift from Dr. D. Lipscombe), hCav2.2 (a gift from Dr. D. Yue), hCav2.3 (purchased from GenScript United States Inc.) were co-transfected with β3, α2δ1 and GFP. After transfection, cells were plated on 12 mm cover glass and transferred to a 30°C incubator for 1–3 days.
# Depolarization-activated Ca^2+ currents (ICa) in transfected HEK293 cells were recorded in the whole-cell patch clamp configuration. Data were recorded using a MultiClamp 700B amplifier, digitized with a DigiData1440 and controlled using Clampex10.7 software (Molecular Devices, United States). Currents were sampled at 100 kHz and filtered to 10 kHz, with leak and capacitive currents subtracted using a −P/4 protocol. […] Intracellular recording solution contained as follows (mM): 140 KGluconate, 5 NaCl, 2 MgCl2, 5 EGTA and 10 HEPES, pH 7.2 with KOH. Cells were continuously perfused with extracellular solution at a rate of ∼1.2 ml/min. […] Activation curves of hCav2.2 were generated through a series of test pulses (50 ms) ranging from −30 to +50 mV (Δ5 mV) every 5 s with a holding potential of −90 mV. […]
# as §3
# [3] = tested on: TTXs-I Na in small-diameter IB4 ^− DRG neurons; settings: cited from earlier work
# animal pain models = settings: in vivo, cited from earlier work
# Source text: […]. Nav channels are structurally related to voltage-gated calcium (Cav) channels, Cav1 and Cav2. […] […].
# [4] = tested on: mouse models of acute postsurgical pain; settings: in vivo; cited from earlier work
compound,measurement,setting,value
"CSCC[C@@H]1NC(=O)[C@H](Cc2ccc(O)cc2)NC(=O)[C@H](CCCNC(=N)N)NC(=O)[C@@H](NC(=O)[C@@H](N)CC(=O)O)CSSC[C@@H]2NC(=O)[C@@H]3CSSC[C@@H](C(=O)N[C@@H](C)C(=O)N[C@@H](Cc4c[nH]c5ccccc45)C(=O)N[C@@H](CC(=O)O)C(=O)N[C@@H](Cc4ccccc4)C(=O)N[C@H](C(=O)N[C@@H](Cc4ccccc4)C(=O)N[C@H](C(=O)O)[C@@H](C)O)[C@@H](C)O)NC(=O)[C@H](Cc4ccc(O)cc4)NC(=O)[C@H](CCCCN)NC(=O)[C@H](CCSC)NC(=O)[C@H](CCCCN)NC(=O)[C@H](CCCNC(=N)N)NC(=O)[C@H](CCCCN)NC(=O)[C@H](CSSC[C@H](NC(=O)[C@H](CC(=O)O)NC(=O)CNC(=O)[C@H](Cc4ccccc4)NC1=O)C(=O)N[C@@H](CCC(=O)O)C(=O)N[C@@H](CCCCN)C(=O)N[C@@H](CC(=O)O)C(=O)N[C@@H](CCC(=O)O)C(=O)N[C@@H](CC(=O)O)C(=O)N3)NC(=O)CNC(=O)[C@H](CC(C)C)NC(=O)[C@H](Cc1c[nH]cn1)NC(=O)[C@H](CCCCN)NC2=O [Pn3a, µ-Theraphotoxin-Pn3a]",HVA I Ca spared,[1],half
same,inhibition of HVA I Ca,[1],4.45 ± 0.78%
same,suppression of I Ca,[1],13.97 ± 1.39%
same,inhibition of HVA I Ca,[1]; 10 µM,~55% and 56.5 ± 1.9%
same,inhibition of Cav1.2-mediated current,mCav1.2,70.3 ± 1.5%
same,inhibition of Cav2.1-mediated current,hCav2.1,58.0 ± 1.8%
same,reversibility of block on washout,[2],fully reversible upon washout
same,V0.5 of activation,hCav2.2,11.7 ± 0.1 mV
same,effect on voltage dependence of activation (in words),hCav2.2,slightly shifted; also recorded: without apparent changes in channel activation
same,slope factor ka of activation,hCav2.2,3.7 ± 0.1
same,suppression of TTXs-I Na (in words),[3],strongly suppress
same,analgesia/anti-allodynia on co-administration with opioids (in words),animal pain models; 1 mg/kg,significant analgesia/anti-allodynia
same,analgesia in various animal pain models (in words),animal pain models,fails to produce analgesia
same,effect in rodent models of acute nociception or inflammatory pain (in words),animal pain models,ineffective
same,antinociceptive behavior in acute postsurgical pain (in words),[4],causes antinociceptive behavior
